# Where “and” joins values, the source holds several entries; their conditions need not be identical. Equal values may be shown once. Inconclusive results and toxic doses are left out.
# Tested on: B16 melanoma ip, C57BL/6 mice, median survival T/C
# Experiment: NCI In Vivo Anticancer Drug Screen. Data for tumor model B16 Melanoma (intraperitoneal) in C57BL/6 mice
# Details: endpoint: median survival time, higher = longer survival
# Experimental: The antitumor activity of compounds was measured in mice bearing transplantable tumors. Survival or tumor size were measured and the results are expressed as the measurement made in the treated group (T) divided by the measurement made in the vehicle treated control group (C). The tumor model used in this assay is B16 Melanoma (intraperitoneal) in C57BL/6 mice
# [1] = dose: 15.6 mg/kg/injection, schedule: Q01DX009 (ip), vehicle: saline
# [2] = dose: 31.3 mg/kg/injection, schedule: Q01DX009 (ip), vehicle: saline
# [3] = dose: 62.5 mg/kg/injection, schedule: Q01DX009 (ip), vehicle: saline
# [4] = dose: 125.0 mg/kg/injection, schedule: Q01DX009 (ip), vehicle: saline
# [5] = dose: 25.0 mg/kg/injection, schedule: Q01DX009 (ip), vehicle: saline
# [6] = dose: 50.0 mg/kg/injection, schedule: Q01DX009 (ip), vehicle: saline
# [7] = dose: 100.0 mg/kg/injection, schedule: Q01DX009 (ip), vehicle: saline
# [8] = dose: 0.1 mg/kg/injection, schedule: Q01DX009 (ip), vehicle: saline
# [9] = dose: 0.2 mg/kg/injection, schedule: Q01DX009 (ip), vehicle: saline
# [10] = dose: 3.13 mg/kg/injection, schedule: Q01DX009 (ip), vehicle: saline
# [11] = dose: 5.0 mg/kg/injection, schedule: Q01DX009 (ip), vehicle: saline
# [12] = dose: 10.0 mg/kg/injection, schedule: Q01DX009 (ip), vehicle: saline
# [13] = dose: 8.0 mg/kg/injection, schedule: Q01DX009 (ip), vehicle: saline
# [14] = dose: 16.0 mg/kg/injection, schedule: Q01DX009 (ip), vehicle: saline
# [15] = dose: 200.0 mg/kg/injection, schedule: Q01DX009 (ip), vehicle: saline
# [16] = dose: 400.0 mg/kg/injection, schedule: Q01DX009 (ip), vehicle: saline
smiles,measurement,setting,value
CC(C)=CCC/C(C)=C/CO,T/C,[1],93 % of control
same,T/C,[2],96 % of control
same,T/C,[3],86 % of control
same,T/C,[4],86 % of control
O=c1[nH]cc(N(CCCl)CCCl)c(=O)[nH]1,T/C,"dose: 1.5 mg/kg/injection, schedule: Q01DX009 (ip), vehicle: saline",87 % of control and 106 % of control
COc1cc(C[C@H]2c3cc(OC)c(OC)cc3CCN2C)c(Oc2cc3c(cc2OC)-c2c(OC)c(OC)cc4c2[C@H](C3)N(C)CC4)cc1OC,T/C,[5],96 % of control
same,T/C,[6],96 % of control
same,T/C,[7],92 % of control
CC1OC(O[C@@H]2C=C3CC[C@@H]4[C@H](CC[C@]5(C)[C@@H](c6ccc(=O)oc6)CC[C@]45O)[C@@]3(C)CC2)C(O)C(O)C1O (some centres undefined),T/C,"dose: 2.5 mg/kg/injection, schedule: Q01DX009 (sc), vehicle: steriod suspending solution",113 % of control
same,T/C,"dose: 5.0 mg/kg/injection, schedule: Q01DX009 (sc), vehicle: steriod suspending solution",97 % of control
CC1=C2C(=C[C@@](C)(CO)[C@@H]2O)C(=O)[C@](C)(O)C12CC2,T/C,[8],113 % of control
same,T/C,[9],113 % of control
S=c1nc[nH]c2nc[nH]c12,T/C,"dose: 7.5 mg/kg/injection, schedule: Q01DX009 (ip), vehicle: saline",93 % of control and 100 % of control
same,T/C,"dose: 15.0 mg/kg/injection, schedule: Q01DX009 (ip), vehicle: saline",90 % of control and 93 % of control
same,T/C,"dose: 30.0 mg/kg/injection, schedule: Q01DX009 (ip), vehicle: saline",93 % of control
same,T/C,"dose: 60.0 mg/kg/injection, schedule: Q01DX009 (ip), vehicle: saline",93 % of control
CC1CC(C)(O)CC(C(O)CC2CC(=O)NC(=O)C2)C1=O (centres undefined),T/C,[8],111 % of control
same,T/C,[9],122 % of control
same,T/C,"dose: 0.4 mg/kg/injection, schedule: Q01DX009 (ip), vehicle: saline",116 % of control
same,T/C,"dose: 0.8 mg/kg/injection, schedule: Q01DX009 (ip), vehicle: saline",86 % of control
N=[N+]=CC(=O)OCC(N)C(=O)O (centres undefined),T/C,[10],96 % of control
same,T/C,"dose: 6.25 mg/kg/injection, schedule: Q01DX009 (ip), vehicle: saline",100 % of control
same,T/C,"dose: 12.5 mg/kg/injection, schedule: Q01DX009 (ip), vehicle: saline",86 % of control
same,T/C,[5],90 % of control
CN(C)CC(=O)c1ccc(O)c(O)c1,T/C,"dose: 75.0 mg/kg/injection, schedule: Q01DX009 (ip), vehicle: saline",112 % of control
same,T/C,"dose: 150.0 mg/kg/injection, schedule: Q01DX009 (ip), vehicle: saline",109 % of control
same,T/C,"dose: 300.0 mg/kg/injection, schedule: Q01DX009 (ip), vehicle: saline",115 % of control
same,T/C,"dose: 600.0 mg/kg/injection, schedule: Q01DX009 (ip), vehicle: saline",121 % of control
O=C(O)c1[nH]c(=O)[nH]c(=O)c1F,T/C,"dose: 1.25 mg/kg/injection, schedule: Q01DX009 (ip), vehicle: saline",100 % of control
same,T/C,"dose: 2.5 mg/kg/injection, schedule: Q01DX009 (ip), vehicle: saline",106 % of control and 110 % of control
same,T/C,[11],100 % of control and 103 % of control
same,T/C,[12],87 % of control and 89 % of control
C=CCN(CC=C)c1ncnc2[nH]ncc12,T/C,[1],105 % of control
same,T/C,[2],100 % of control
same,T/C,[3],102 % of control
same,T/C,[4],102 % of control
O=c1[nH]cc(F)c(=O)[nH]1,T/C,[11],113 % of control
same,T/C,[12],120 % of control
same,T/C,"dose: 20.0 mg/kg/injection, schedule: Q01DX009 (ip), vehicle: saline",123 % of control
Nc1ncnc2c(C3OC(CO)C(O)C3O)[nH]nc12 (centres undefined),T/C,[13],153 % of control
same,T/C,[14],113 % of control
same,T/C,[2],157 % of control
COc1cc([C@@H]2c3cc4c(cc3[C@H](O)[C@H]3COC(=O)[C@H]23)OCO4)cc(OC)c1OC,T/C,"dose: 2.0 mg/kg/injection, schedule: Q01DX009 (ip), vehicle: saline",106 % of control
same,T/C,"dose: 4.0 mg/kg/injection, schedule: Q01DX009 (ip), vehicle: saline",120 % of control
same,T/C,[13],113 % of control
same,T/C,[14],96 % of control
CCc1nc(N)nc(N)c1-c1ccc(Cl)cc1,T/C,[5],96 % of control
same,T/C,[6],100 % of control
same,T/C,[7],93 % of control
same,T/C,[15],113 % of control
CC1([N+](=O)[O-])COP(=O)(NC2CCCC2)OC1 (centres undefined),T/C,[6],100 % of control
same,T/C,[7],96 % of control
same,T/C,[15],96 % of control
N#CSCc1ccc(Cl)cc1Cl,T/C,"dose: 25.0 mg/kg/injection, schedule: Q01DX009 (ip), vehicle: saline with Tween-80",102 % of control
same,T/C,"dose: 50.0 mg/kg/injection, schedule: Q01DX009 (ip), vehicle: saline with Tween-80",100 % of control
CC1CCC(NC(=O)N(CCCl)N=O)CC1 (centres undefined),T/C,"dose: 1.9 mg/kg/injection, schedule: Q01DX001 (ip), vehicle: saline",100 % of control
same,T/C,"dose: 3.75 mg/kg/injection, schedule: Q01DX001 (ip), vehicle: saline",112 % of control
same,T/C,"dose: 7.5 mg/kg/injection, schedule: Q01DX001 (ip), vehicle: saline",103 % of control
same,T/C,"dose: 15.0 mg/kg/injection, schedule: Q01DX001 (ip), vehicle: saline",115 % of control
O=NN(CCCl)C(=O)Nc1ccc(CCO)cc1,T/C,"dose: 1.56 mg/kg/injection, schedule: Q01DX009 (ip), vehicle: saline",195 % of control
same,T/C,[10],190 % of control
COc1cc2c(cc1OC)C(c1cc(OC)c(OC)c(OC)c1)C1(O)C(=O)OCC1(O)C2 (centres undefined),T/C,[6],93 % of control
same,T/C,[7],93 % of control
same,T/C,[15],86 % of control
same,T/C,[16],86 % of control
CC(=O)OC(C)(C)/C=C/C(=O)[C@](C)(O)[C@H]1[C@H](O)C[C@@]2(C)[C@@H]3CC=C4[C@@H](C[C@H](O)C(=O)C4(C)C)[C@]3(C)C(=O)C[C@]12C,T/C,"dose: 0.25 mg/kg/injection, schedule: Q01DX009 (ip), vehicle: saline with Tween-80",92 % of control
same,T/C,"dose: 0.5 mg/kg/injection, schedule: Q01DX009 (ip), vehicle: saline with Tween-80",100 % of control
same,T/C,"dose: 1.0 mg/kg/injection, schedule: Q01DX009 (ip), vehicle: saline with Tween-80",92 % of control
Nc1nc2n[nH]nc2c(=O)[nH]1,T/C,[5],100 % of control
same,T/C,[6],103 % of control
same,T/C,[7],86 % of control
same,T/C,[15],90 % of control
CCSCCC(N)C(=O)O (centres undefined),T/C,[6],100 % of control
same,T/C,[7],100 % of control
same,T/C,[15],90 % of control
CC(Cc1ccc(O)c(O)c1)C(C)Cc1ccc(O)c(O)c1 (centres undefined),T/C,[6],103 % of control
same,T/C,[7],106 % of control
same,T/C,[15],113 % of control
same,T/C,[16],113 % of control

# Reference: PubChem BioAssay AID198 (DTP/NCI, 2004)
